Assay [1] addresses T1, human Factor XIII (FXIII) (Homo sapiens, UniProt P00488).
T1 construct: purchased Zedira
T1 sequence (P00488 1-732): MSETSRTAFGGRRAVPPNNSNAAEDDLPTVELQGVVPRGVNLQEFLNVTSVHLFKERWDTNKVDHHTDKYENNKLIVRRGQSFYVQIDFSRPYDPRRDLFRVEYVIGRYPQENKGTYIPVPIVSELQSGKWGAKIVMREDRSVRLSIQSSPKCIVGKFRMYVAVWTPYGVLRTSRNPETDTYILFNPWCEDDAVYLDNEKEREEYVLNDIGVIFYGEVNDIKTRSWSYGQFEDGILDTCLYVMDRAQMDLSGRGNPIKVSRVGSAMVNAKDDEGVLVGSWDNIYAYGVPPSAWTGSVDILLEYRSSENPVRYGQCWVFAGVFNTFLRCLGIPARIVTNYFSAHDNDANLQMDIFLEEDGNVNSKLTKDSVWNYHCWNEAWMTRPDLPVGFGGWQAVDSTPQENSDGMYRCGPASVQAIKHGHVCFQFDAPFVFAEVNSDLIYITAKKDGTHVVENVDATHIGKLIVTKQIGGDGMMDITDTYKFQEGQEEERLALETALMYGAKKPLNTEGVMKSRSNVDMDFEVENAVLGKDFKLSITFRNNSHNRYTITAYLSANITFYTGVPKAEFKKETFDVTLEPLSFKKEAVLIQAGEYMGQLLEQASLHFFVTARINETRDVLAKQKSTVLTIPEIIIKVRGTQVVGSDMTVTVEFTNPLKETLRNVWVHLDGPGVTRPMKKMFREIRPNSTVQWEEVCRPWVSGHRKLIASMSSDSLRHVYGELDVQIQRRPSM
As to the kind of experiment: Inhibition of recombinant Transglutaminase activity (fluorescent substrate), human Factor XIII. The class given is biochemical. The settings on record: Fig 2C, read-out: IC50 to inhibit FXIII activity. The procedure: (§1) The potency and specificity of TG2 inhibitors was assessed with various recombinant TGs, as previously described. The reaction buffer (50 mM Tris, 100 mM NaCl, 10 mM CaCl2, 5 mM H-Gly-OMe*HCl (glycinemethylestherhydrochloride, Sigma), 5 mM hexadimethinbromide (Sigma), 9.1 mM DTT, pH 7.5) was heated to 37°C in a 96 well plate. Then 50 μM of the TG substrate Abz-NE(CAD-DNP)EQVSPLTLLK-OH (Zedira) was added. 1 μg/ml recombinant TG (human TG1, human (hTG2) / mouse TG2 (mTG2) or human Factor XIII (FXIII); Zedira) were added. The two lyophilized TG2 inhibitors (see Fig 1 for chemical structure) BJJF078 (3,4-Dimethoxy-N-(5-[4-(acryloylamino)piperidine-1-sulfonyl]-naphthalen-1-yl)-benzamide, kindly provided by Dr S. El Alaoui, Covalab, France) and ERW1041E (2-[(3-Bromo-4,5-dihydro-isoxazol-5-ylmethyl)-carbamoyl]-pyrrolidine-1—carboxylic acid quinolin-3-ylmethyl ester, kindly provided by Prof C. Khosla, Stanford University, USA) were dissolved in DMSO (stock solution: 54 mM) and stored at -80°C. These stocks were further diluted and various concentrations of the TG2 inhibitors (0.3 nM to 100 μM), were added to the wells (final DMSO concentration per well: 0.06%). The relative increase in fluorescence emission, correlating with enzymatic activity, was measured over 4 h with a fluorimeter (Excitation: 320nm, emission: 405 nm; Fluostar, GMB).

Another assay addresses T2, human TG1 (Homo sapiens, UniProt P22735).
T2 construct: purchased Zedira
T2 sequence (P22735 1-817): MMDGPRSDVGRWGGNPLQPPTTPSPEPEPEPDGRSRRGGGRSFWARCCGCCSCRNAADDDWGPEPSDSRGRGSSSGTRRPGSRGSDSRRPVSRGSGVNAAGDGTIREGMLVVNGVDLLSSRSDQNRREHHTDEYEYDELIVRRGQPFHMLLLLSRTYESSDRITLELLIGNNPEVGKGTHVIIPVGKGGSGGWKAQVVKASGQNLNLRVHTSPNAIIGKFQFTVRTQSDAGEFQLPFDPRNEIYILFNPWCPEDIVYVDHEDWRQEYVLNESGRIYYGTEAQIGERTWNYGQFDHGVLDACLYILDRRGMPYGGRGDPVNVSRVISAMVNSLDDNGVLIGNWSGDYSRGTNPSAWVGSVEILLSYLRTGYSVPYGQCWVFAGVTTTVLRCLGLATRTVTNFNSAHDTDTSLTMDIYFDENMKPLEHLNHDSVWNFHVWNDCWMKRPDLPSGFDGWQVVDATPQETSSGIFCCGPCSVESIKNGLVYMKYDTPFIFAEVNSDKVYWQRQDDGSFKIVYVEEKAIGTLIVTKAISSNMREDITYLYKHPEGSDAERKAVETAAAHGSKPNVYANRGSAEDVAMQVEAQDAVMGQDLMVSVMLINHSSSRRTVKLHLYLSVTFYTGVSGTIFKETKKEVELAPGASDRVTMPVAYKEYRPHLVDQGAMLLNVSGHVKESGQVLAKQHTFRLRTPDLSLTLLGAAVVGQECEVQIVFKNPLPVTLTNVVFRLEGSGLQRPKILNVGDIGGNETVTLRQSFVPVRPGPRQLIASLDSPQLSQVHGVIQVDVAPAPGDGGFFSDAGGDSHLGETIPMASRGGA
As to the kind of experiment: Inhibition of recombinant Transglutaminase activity (fluorescent substrate), human TG1. The class given is biochemical. The settings on record: human recombinant TG1, Fig 2B; read-out: IC50 to inhibit TG1. As to the method: as §1

pIC50: −log10 of the molar value.

In the case of `C=CC(=O)NC1CCN(S(=O)(=O)c2cccc3c(NC(=O)c4ccc(OC)c(OC)c4)cccc23)CC1` [BJJF078, 3,4-Dimethoxy-N-(5-[4-(acryloylamino)piperidine-1-sulfonyl]-naphthalen-1-yl)-benzamide], the pIC50 in assay [1] is 4.66; on human TG1, 6.80.

Turning to `O=C(NCC1CC(Br)=NO1)C1CCCN1C(=O)OCc1cnc2ccccc2c1` (stereo not shown) [ERW1041E, 2-[(3-Bromo-4,5-dihydro-isoxazol-5-ylmethyl)-carbamoyl]-pyrrolidine-1—carboxylic acid quinolin-3-ylmethyl ester], the results for the pIC50 (in assay [1]; at human TG1) were 4.28 and 6.36, respectively.

As usually defined, the pIC50 is −log10 of the IC50, conventionally taken in molar units.

(Values after paper PMC5918173, “Characterization of Transglutaminase 2 activity inhibitors in monocytes in vitro and their effect in a mouse model for multiple sclerosis” (PLoS ONE, 2018).)
